Molecular target: T1, β-glucuronidase (GUS) (Escherichia coli, UniProt P05804)
T1 construct: gene uidA; purified GUS encoded by E. coli (G8420-25KU, Sigma-Aldrich)
Assay: colorimetric PNPG hydrolysis (p-nitrophenol release) with purified enzyme; complete inhibition at […]
Type: biochemical

T1 sequence (P05804 whole entry): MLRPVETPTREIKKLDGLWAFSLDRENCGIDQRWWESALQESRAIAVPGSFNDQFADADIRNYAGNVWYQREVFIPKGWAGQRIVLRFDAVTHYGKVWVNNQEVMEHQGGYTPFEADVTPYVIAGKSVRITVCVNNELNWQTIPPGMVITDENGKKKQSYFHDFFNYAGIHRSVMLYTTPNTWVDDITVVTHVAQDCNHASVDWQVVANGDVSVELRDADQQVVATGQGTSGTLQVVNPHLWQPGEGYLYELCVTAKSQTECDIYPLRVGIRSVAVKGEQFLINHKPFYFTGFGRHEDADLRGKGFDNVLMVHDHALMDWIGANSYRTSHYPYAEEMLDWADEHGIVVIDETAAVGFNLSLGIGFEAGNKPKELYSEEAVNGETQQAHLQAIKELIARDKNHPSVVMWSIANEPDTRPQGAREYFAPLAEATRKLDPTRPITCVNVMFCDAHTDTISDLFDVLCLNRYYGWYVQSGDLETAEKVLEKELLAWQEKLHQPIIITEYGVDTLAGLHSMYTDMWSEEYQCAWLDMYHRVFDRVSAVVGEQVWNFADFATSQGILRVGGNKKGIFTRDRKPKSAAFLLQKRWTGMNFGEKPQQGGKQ

With `Clc1ccc2c(c1)C(N1CCNCC1)=Nc1ccccc1O2` [amoxapine] the “colorimetric PNPG hydrolysis (p-nitrophenol release) with purified enzyme; compl” value was 50 µM.

Source: PMC8070173, “Phenelzine and Amoxapine Inhibit Tyramine and d-Glucuronic Acid Catabolism in Clinically Significant Salmonella in A Serotype-Independent Manner” (Pathogens, 2021)
